Data published in patent US11192932B2, “Heparin-binding domain of IGFBP-2 in the treatment of metabolic disorders” (Amolyt Pharma, priority 2018, dated 2021).
“Also recorded” adds a separate entry of the source. No end group written: not given here. *: point of attachment. Stearoyl = CCCCCCCCCCCCCCCCCC(=O)*

System: C2C12 mouse skeletal muscle myotubes
Test: 3H-2-deoxyglucose uptake by fully differentiated C2C12 myotubes
Format: cell-based
Description: In particular: HBD1 SEQ ID NO: 73 (C18:0-HLGLEEPKK) at 0.8 μM, 1.5 μM, and 2.3 μM; or 1.5 μM SEQ ID NO: 73 (C18:0-HLGLEEPKK) for 2, 4, and 16 hours prior to testing glucose uptake.
The studies were performed using cultured, fully differentiated C2C12 mouse skeletal muscle myotubes. The cells were prepared by growing C2C12 cells to confluent density in DMEM with 25 mM glucose and 10% fetal bovine serum in 24 well plates. At this time, the medium was changed to differentiation medium (DMEM with 25 mM glucose and 2% horse serum) for 6 days with medium changed every third day. The various treatments were diluted in serum-free medium and, after washing the cells with serum-free medium, were added to the cells and incubated for 2 hours or alternative times, depending on the treatment. At the end of incubation period, the media was removed and 1.0 ml of glucose-free Krebs ringer bicarbonate buffer (pH 7.4), containing the same treatments, was added and incubation continued for 10 minutes. At the end of the 10 min incubation period, ^3H-2-deoxyglucose ([…]) (specific activity=8 Ci/mmole) was added directly to all wells, and the incubation continued for an additional […]. The wells were then rinsed three times with ice cold phosphate buffered saline, the cells were extracted with 0.5 N NaOH, and the ^3H-2-deoxyglucose content of the cell lysate quantitated by scintillation counting.

C18:0-HLGLEEPKK (Stearoyl-HLGLEEPKK) [SEQ ID NO: 73]
glucose uptake by C2C12 myotubes, dose dependence (FIG. 5A) (0.8 μM, 1.5 μM and 2.3 μM, vs vehicle-treated controls): stimulated increased glucose uptake as compared with vehicle-treated controls in both a dose- and time-dependent manner
glucose uptake by C2C12 myotubes, time dependence (FIG. 5B) (1.5 μM for 2, 4 and 16 hours): time-dependent manner
glucose uptake by C2C12 myotubes with insulin, separate experiment (FIG. 8) (1.5 μM plus insulin): act additively with insulin; also recorded: in an additive manner with insulin
glucose uptake by C2C12 myotubes, separate experiment (FIG. 8) (1.5 μM, alone): increased glucose uptake
glucose uptake by C2C12 myotubes in combination with insulin (FIG. 5C) (peptide plus insulin): additive increase in glucose uptake
